Results as given in the supplement of paper PMC10307832.

Legend:
Experiment in all cases: relative viability (nuclei count vs DMSO), 5 days (fraction); higher = more cells survive
[1] = compound: N[C@@H]1CCCN(c2c(/C=C3\SC(=O)NC3=O)cccc2-c2ccccc2)C1 [AZD1208] + CC(=O)Nc1cccc(-n2c(=O)n(C3CC3)c(=O)c3c(Nc4ccc(I)cc4F)n(C)c(=O)c(C)c32)c1 [Trametinib] (partner 0.02 µM)
Procedure, shortened: (§1)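 After 5 days of treatment, lung cancer cells in 1536-well plates were fixed and stained in a single step (final 0.05% Triton X-100, 1% formaldehyde, 1 ug/ml Hoechst) and their nuclei counted on 4× images. Treatment had been applied by pin tool the day after seeding as one drug alone or as a fixed anchor-drug dose with five library-drug doses (not always all listed) in √10 steps. Relative viability is the nuclei count of treated wells divided by that of vehicle wells, and values are medians of duplicate plates.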

[2] = compound: CN1CCN(CC1)C2=CC(=C(C=C2)NC3=NC(=C(S3)C(=O)C4=C(C=CC=C4Cl)Cl)N)OC [XMD14-99] + CS(=O)(=O)N1CCN(Cc2cc3nc(-c4cccc5[nH]ncc45)nc(N4CCOCC4)c3s2)CC1 [Pictilisib] (partner 1 µM)
Procedure, shortened: as §1

[3] = compound: CN1CCN(CC1)C2=CC(=C(C=C2)NC3=NC(=C(S3)C(=O)C4=C(C=CC=C4Cl)Cl)N)OC [XMD14-99] + C[C@@H](Oc1cc(-c2cnn(C3CCNCC3)c2)cnc1N)c1c(Cl)ccc(F)c1Cl [Crizotinib] (partner 1 µM)
Procedure, shortened: as §1

[4] = compound: N[C@@H]1CCCN(c2c(/C=C3\SC(=O)NC3=O)cccc2-c2ccccc2)C1 [AZD1208] + CC(C)C[C@H](NC(=O)[C@H](Cc1ccccc1)NC(=O)c1cnccn1)B(O)O [Bortezomib] (partner 0.002 µM)
Procedure, shortened: as §1

UMC-11
relative viability ([1]; first compound 0.08 µM): 0.498
relative viability ([1]; first compound 0.253 µM): 0.623
relative viability ([1]; first compound 0.8 µM): 0.454
relative viability ([1]; first compound 2.53 µM): 0.381
relative viability ([1]; first compound 8 µM): 0.313
relative viability ([2]; first compound 0.08 µM): 0.802
relative viability ([2]; first compound 0.8 µM): 0.856
relative viability ([2]; first compound 2.53 µM): 0.795
relative viability ([2]; first compound 8 µM): 0.663
relative viability ([3]; first compound 0.08 µM): 0.619
relative viability ([3]; first compound 0.8 µM): 0.582
relative viability ([3]; first compound 2.53 µM): 0.721
relative viability ([3]; first compound 8 µM): 0.577
relative viability ([4]; first compound 0.08 µM): 0.742
relative viability ([4]; first compound 0.253 µM): 0.755
relative viability ([4]; first compound 0.8 µM): 0.644
relative viability ([4]; first compound 2.53 µM): 0.62
relative viability ([4]; first compound 8 µM): 0.374
